Data on 25 compounds can be found in patent US20240092784A1, “CONDENSED HETEROCYCLIC COMPOUND” (NISSAN CHEMICAL CORPORATION, priority 2020, published 2024).

Counter-ions that a name gives are not always drawn.

human SPR, sequence (P35270 whole entry): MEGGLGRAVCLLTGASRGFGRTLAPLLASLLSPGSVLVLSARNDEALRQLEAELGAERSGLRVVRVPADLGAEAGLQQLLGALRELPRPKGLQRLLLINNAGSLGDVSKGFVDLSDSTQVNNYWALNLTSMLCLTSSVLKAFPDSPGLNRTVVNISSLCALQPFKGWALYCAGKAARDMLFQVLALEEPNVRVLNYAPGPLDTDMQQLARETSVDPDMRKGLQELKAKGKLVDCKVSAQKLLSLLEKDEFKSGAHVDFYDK

The first assay deals with human SPR (Homo sapiens (Human), UniProt P35270). Description: Evaluation Example 2: Measurement of human SPR inhibitory activity (seven concentrations, sepiapterin absorbance at 420 nm). In kind it is biochemical. Particulars: Evaluation Example 2, seven concentrations 0.14 nM to 100 nM, 240 minutes at room temperature, hydrochloride, read-out: IC50. Summed up:
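His-tagged full-length human SPR (1-261) was expressed in E. coli and the tag removed. Enzyme at 150 ng/mL in 100 mM Tris-HCl pH 7.5/0.01% BSA was mixed with compound (0.14–100 nM, seven points), 120 μM sepiapterin and 160 μM NADPH, both as added-solution concentrations. After 240 min at room temperature, remaining sepiapterin was read at 420 nm to give percent inhibition.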
Take `CC(C)(C)Cn1c(=O)c(C(=O)NC2CC2)c(O)n2nc(N)cc12` [Synthesis Example 4, 2-Amino-N-cyclopropyl-7-hydroxy-4-neopentyl-5-oxo-4,5-dihydropyrazolo[1,5-a]pyrimidine-6-carboxamide hydrochloride]: the IC50 amounted to 0.9 nM.

The assay is the same for the next values; noted with them: Evaluation Example 2, seven concentrations 0.14 nM to 100 nM, 240 minutes at room temperature, read-out: IC50.
Regarding `CNc1nn2c(O)c(C(=O)NC3CC3)c(=O)n(CC(C)C)c2c1/C=C/C(=O)N1CC[C@H](F)C1` [Synthesis Example 429, (S,E)-N-Cyclopropyl-3-(3-(3-fluoropyrrolidin-1-yl)-3-oxoprop-1-en-1-yl)-7-hydroxy-4-isobutyl-2-(methylamino)-5-oxo-4,5-dihydropyrazolo[1,5-a]pyrimidine-6-carboxamide], the IC50 came to 0.8 nM. As for `O=C(NC1CC1)c1c(O)n2ncc(/C=C/C(=O)N3CCOCC3)c2n(CC2CC2)c1=O` [Synthesis Example 387, (E)-N-Cyclopropyl-4-(cyclopropylmethyl)-7-hydroxy-3-(3-morpholino-3-oxoprop-1-en-1-yl)-5-oxo-4,5-dihydropyrazolo[1,5-a]pyrimidine-6-carboxamide], the IC50 was 0.86 nM. Turning to `CC(C)(C)Cn1c(=O)c(C(=O)NC2CC2)c(O)n2nc(-c3cccnc3F)cc12` [Synthesis Example 283, N-Cyclopropyl-2-(2-fluoropyridine-3-yl)-7-hydroxy-4-neopentyl-5-oxo-4,5-dihydropyrazolo[1,5-a]pyrimidine-6-carboxamide], the IC50 was found to be 2.35 nM. For `CC(C)Cn1c(=O)c(C(=O)NC2CC2)c(O)n2ncc(/C=C/C(=O)N3CCC[C@@H]3C(C)C)c12` [compound 599, (R,E)-N-Cyclopropyl-7-hydroxy-4-isobutyl-3-(3-(2-isopropylpyrrolidin-1-yl)-3-oxoprop-1-en-1-yl)-5-oxo-4,5-dihydropyrazolo[1,5-a]pyrimidine-6-carboxamide], the IC50 is 1.27 nM. Regarding `CC(C)Cn1c(=O)c(C(=O)NC2CC2)c(O)n2ncc(/C=C/c3cccnc3)c12` [Synthesis Example 247, (E)-N-Cyclopropyl-7-hydroxy-4-isobutyl-5-oxo-3-(2-(pyridin-3-yl)vinyl)-4,5-dihydropyrazolo[1,5-a]pyrimidine-6-carboxamide], the IC50 stood at 0.94 nM.

`CN(C)/C=N/c1cc2n(CC(C)(C)C)c(=O)c(C(=O)NC3CC3)c(O)n2n1` [Synthesis Example 362, (E)-N-Cyclopropyl-2-(((dimethylamino)methylene)amino)-7-hydroxy-4-neopentyl-5-oxo-4,5-dihydropyrazolo[1,5-a]pyrimidine-6-carboxamide hydrochloride]: the IC50 was found to be 1.48 nM. On to `CC(C)Cn1c(=O)c(C(=O)NC2CC2)c(O)n2ncc(/C=C/C(=O)N(C)C(C)C)c12` [compound 503, (E)-N-Cyclopropyl-7-hydroxy-4-isobutyl-3-(3-(isopropyl(methyl)amino)-3-oxoprop-1-en-1-yl)-5-oxo-4,5-dihydropyrazolo[1,5-a]pyrimidine-6-carboxamide], for which the IC50 came out at 0.8 nM. As for `CC(C)Cn1c(=O)c(C(=O)NC2CC2)c(O)n2ncc(/C=C/C(=O)N3CCC(F)(F)C3)c12` [compound 453, (E)-N-Cyclopropyl-3-(3-(3,3-difluoropyrrolidin-1-yl)-3-oxoprop-1-en-1-yl)-7-hydroxy-4-isobutyl-5-oxo-4,5-dihydropyrazolo[1,5-a]pyrimidine-6-carboxamide], the IC50 was 0.82 nM. In the case of `C[C@H]1COCCN1C(=O)/C=C/c1cnn2c(O)c(C(=O)NC3CC3)c(=O)n(CC3(F)CC3)c12` [Synthesis Example 379, (S,E)-N-Cyclopropyl-4-((1-fluorocyclopropyl)methyl)-7-hydroxy-3-(3-(3-methylmorpholino)-3-oxoprop-1-en-1-yl)-5-oxo-4,5-dihydropyrazolo[1,5-a]pyrimidine-6-carboxamide], the IC50 was 0.7 nM. `Cc1nn2c(O)c(C(=O)NC3CC3)c(=O)n(CC(C)C)c2c1/C=C/C(=O)N1CCOC[C@H]1c1ccccc1` [Synthesis Example 642, (R,E)-N-Cyclopropyl-7-hydroxy-4-isobutyl-2-methyl-5-oxo-3-(3-oxo-3-(3-phenylmorpholino)prop-1-en-1-yl)-4,5-dihydropyrazolo[1,5-a]pyrimidine-6-carboxamide]: the IC50 worked out at 0.94 nM. Same read-out and setting: the figure for `CC(C)(C)Cn1c(=O)c(C(=O)NC2CC2)c(O)n2nc3c(c12)CN(CC1CCOCC1)C(=O)N3` [Synthesis Example 409, N-Cyclopropyl-8-hydroxy-5-neopentyl-2,6-dioxo-3-((tetrahydro-2H-pyran-4-yl)methyl)-1,2,3,4,5,6-hexahydropyrazolo[1,5-a:3,4-d′]dipyrimidine-7-carboxamide] is 0.75 nM; for `CC(C)(C)Cn1c(=O)c(C(=O)NC2CC2)c(O)n2nc3nccnc3c12` [Synthesis Example 392, N-Cyclopropyl-7-hydroxy-10-neopentyl-9-oxo-9,10-dihydropyrazino[2′,3′:3,4]pyrazolo[1,5-a]pyrimidine-8-carboxamide] it is 1.5 nM; for `CC(C)Cn1c(=O)c(C(=O)NC2CC2)c(O)n2ncc(/C=C/C(=O)N3CCOCC3CC(F)(F)F)c12` (single isomer, unassigned) [compound 550, (E)-N-Cyclopropyl-7-hydroxy-4-isobutyl-5-oxo-3-(3-oxo-3-(3-(2,2,2-trifluoroethyl)morpholino)prop-1-en-1-yl)-4,5-dihydropyrazolo[1,5-a]pyrimidine-6-carboxamide (Isomer] it is 0.79 nM.

Turning to `CC(C)Cn1c(=O)c(C(=O)NC2CC2)c(O)n2ncc(/C=C/C(=O)N3CCN(C4CC4)CC3)c12` [compound 471, (E)-N-Cyclopropyl-3-(3-(4-cyclopropylpiperazin-1-yl)-3-oxoprop-1-en-1-yl)-7-hydroxy-4-isobutyl-5-oxo-4,5-dihydropyrazolo[1,5-a]pyrimidine-6-carboxamide], the IC50 was determined as 1.18 nM.

In the case of `Cc1nn2c(O)c(C(=O)NC3CC3)c(=O)n(CC(C)C)c2c1/C=C/C(=O)N1CCCC1C1CC1` (stereo not shown) [Synthesis Example 619, (E)-N-Cyclopropyl-3-(3-(2-cyclopropylpyrrolidin-1-yl)-3-oxoprop-1-en-1-yl)-7-hydroxy-4-isobutyl-2-methyl-5-oxo-4,5-dihydropyrazolo[1,5-a]pyrimidine-6-carboxamide], the IC50 worked out at 1.58 nM. For the compound `CC(C)(C)Cn1c(=O)c(C(=O)NC2CC2)c(O)n2nc3c(c12)CC(=O)N3` [Synthesis Example 402, N-Cyclopropyl-7-hydroxy-4-neopentyl-2,5-dioxo-2,3,4,5-tetrahydro-1H-pyrrolo[2′,3′:3,4]pyrazolo[1,5-a]pyrimidine-6-carboxamide], the IC50 amounted to 0.63 nM. For the compound `Cc1nn2c(O)c(C(=O)NC3CC3)c(=O)n(CC(C)C)c2c1/C=C/C(=O)N1[C@@H](C)CC[C@@H]1C` [Synthesis Example 617, N-Cyclopropyl-3-((E)-3-((2S,5S)-2,5-dimethylpyrrolidin-1-yl)-3-oxoprop-1-en-1-yl)-7-hydroxy-4-isobutyl-2-methyl-5-oxo-4,5-dihydropyrazolo[1,5-a]pyrimidine-6-carboxamide], the IC50 came out at 1.04 nM. In the case of `Cc1nn2c(O)c(C(=O)NC3CC3)c(=O)n(CC(C)C)c2c1/C=C/C(=O)N1CCC[C@H]1C` [compound 581, (R,E)-N-Cyclopropyl-7-hydroxy-4-isobutyl-2-methyl-3-(3-(2-methylpyrrolidin-1-yl)-3-oxoprop-1-en-1-yl)-5-oxo-4,5-dihydropyrazolo[1,5-a]pyrimidine-6-carboxamide], the IC50 turned out to be 1.09 nM. On the same count and under the same terms, the figure for `CC(C)Cn1c(=O)c(C(=O)NC2CC2)c(O)n2ncc(/C=C/c3noc(=O)[nH]3)c12` [Synthesis Example 267, (E)-N-Cyclopropyl-7-hydroxy-4-isobutyl-5-oxo-3-(2-(5-oxo-4,5-dihydro-1,2,4-oxadiazol-3-yl)vinyl)-4,5-dihydropyrazolo[1,5-a]pyrimidine-6-carboxamide] is 14.3 nM; for `CC(C)(C)Cn1c(=O)c(C(=O)NC2CC2)c(O)n2nc(Nc3cc(C#N)ncn3)cc12` [Synthesis Example 329, 2-((6-Cyanopyrimidin-4-yl)amino)-N-cyclopropyl-7-hydroxy-4-neopentyl-5-oxo-4,5-dihydropyrazolo[1,5-a]pyrimidine-6-carboxamide] it is 1.69 nM; for `CC(C)Cn1c(=O)c(C(=O)NC2CC2)c(O)n2ncc(C(=O)NCc3ccc(C#N)cc3)c12` [Synthesis Example 232, N3-(4-Cyanobenzyl)-N6-cyclopropyl-7-hydroxy-4-isobutyl-5-oxo-4,5-dihydropyrazolo[1,5-a]pyrimidine-3,6-dicarboxamide] it is 1.25 nM.

The assay is the same for the next values; noted with them: sepiapterin absorbance, Table 41, read-out: concentration at 50% inhibition of human SPR (IC50).
Consider `CC(C)Cn1c(=O)c(C(=O)NC2CC2)c(O)n2ncc(/C=C/C(=O)N3CC[C@@H](C(C)(C)O)C3)c12` [Synthesis Example 743, (R,E)-N-Cyclopropyl-7-hydroxy-3-(3-(3-(2-hydroxypropan-2-yl)pyrrolidin-1-yl)-3-oxoprop-1-en-1-yl)-4-isobutyl-5-oxo-4,5-dihydropyrazolo[1,5-a]pyrimidine-6-carboxamide], for which the IC50 came out at 1.33 nM. With `CC(C)Cn1c(=O)c(C(=O)NC2CC2)c(O)n2ncc(/C=C/C(=O)N3CCC[C@@H]3c3cccnc3)c12` [Synthesis Example 748, (R,E)-N-Cyclopropyl-7-hydroxy-4-isobutyl-5-oxo-3-(3-oxo-3-(2-(pyridin-3-yl)pyrrolidin-1-yl)prop-1-en-1-yl)-4,5-dihydropyrazolo[1,5-a]pyrimidine-6-carboxamide], the IC50 turned out to be 1.01 nM. Same read-out and setting: to `CC(C)Cn1c(=O)c(C(=O)NC2CC2)c(O)n2ncc(/C=C/C(=O)N3CCCC34CCN(C(=O)OC(C)(C)C)CC4)c12` [Synthesis Example 733, Tert-butyl (E)-1-(3-(6-(cyclopropylcarbamoyl)-7-hydroxy-4-isobutyl-5-oxo-4,5-dihydropyrazolo[1,5-a]pyrimidin-3-yl)acryloyl)-1,8-diazaspiro[4.5]decane-8-carboxylate] belongs 2.16 nM.
